Reference: the NIST ThermoML archive (doi:10.1016/j.jct.2018.02.017)

Experiments:
[1] = mn = molality of the nth substance listed, in mol/kg; details: 298.15 K, 100 kPa, Liquid, Falling or rolling sphere viscometry
[2] = 100 kPa, Liquid, Vibrating tube method
[3] = excess molar enthalpy (molar enthalpy of mixing); xn = mol fraction of the nth substance listed; details: 100 kPa, Liquid, Flow calorimetry
[4] = xn = mol fraction of the nth substance listed; details: 100 kPa, Liquid, Vibrating tube method

CCCCn1cc[n+](C)c1.O=S(=O)([O-])C(F)(F)C(F)F + O
[1]
Details | viscosity [mPa·s]
m1 = 0.0216 | 0.9005
m1 = 0.02818 | 0.9042
m1 = 0.05086 | 0.9161
m1 = 0.06272 | 0.9229
m1 = 0.0705 | 0.9269
m1 = 0.0811 | 0.9328

CCCCn1cc[n+](C)c1.O=S(=O)([O-])C(F)(F)C(F)F
[2]
Details | mass density [kg/m3]
288.15 K | 1355.49
293.15 K | 1351.46
298.15 K | 1347.31
303.15 K | 1343.19
308.15 K | 1339.08
313.15 K | 1335.01
318.15 K | 1330.9
323.15 K | 1326.84
328.15 K | 1322.8
333.15 K | 1318.77

CCCC[N+]1(C)CCCC1.N#CN=C=[N-] [1-butyl-1-methylpyrrolidinium dicyanamide]
[2]
Details | mass density [kg/m3]
288.15 K | 1019.08
293.15 K | 1016.25
298.15 K | 1013.43
303.15 K | 1010.62
308.15 K | 1007.83
313.15 K | 1005.05
318.15 K | 1002.29

CCCCn1cc[n+](C)c1.N#CN=C=[N-] [1-butyl-3-methylimidazolium dicyanamide] + O
Details | excess molar enthalpy, [3] [kcal/mol] | mass density, [4] [kg/m3]
288.15 K, x1 = 0.000389 | 5.5e-05 | 999.45
288.15 K, x1 = 0.000777 | 0.000139 | 999.8
288.15 K, x1 = 0.001165 | 0.000232 | 1000.14
288.15 K, x1 = 0.001552 | 0.000335 | 1000.47
288.15 K, x1 = 0.00194 | 0.000437 | 1000.79
288.15 K, x1 = 0.002327 | 0.000547 | 1001.11
298.15 K, x1 = 0.000388 | 0.000198 | 997.35
298.15 K, x1 = 0.000777 | 0.000428 | 997.65
298.15 K, x1 = 0.001165 | 0.000664 | 997.93
298.15 K, x1 = 0.001552 | 0.000903 | 998.21
298.15 K, x1 = 0.001939 | 0.00115 | 998.48
298.15 K, x1 = 0.002327 | 0.0014 | 998.75
308.15 K, x1 = 0.000389 | 0.000351 | 994.29
308.15 K, x1 = 0.000777 | 0.000739 | 994.54
308.15 K, x1 = 0.001165 | 0.00113 | 994.79
308.15 K, x1 = 0.001552 | 0.00152 | 995.02
308.15 K, x1 = 0.00194 | 0.0019 | 995.25
308.15 K, x1 = 0.002327 | 0.0023 | 995.48
318.15 K, x1 = 0.000388 | 0.000511 | 990.43
318.15 K, x1 = 0.000777 | 0.00106 | 990.65
318.15 K, x1 = 0.001165 | 0.00161 | 990.85
318.15 K, x1 = 0.001552 | 0.00215 | 991.06
318.15 K, x1 = 0.00194 | 0.00269 | 991.25
318.15 K, x1 = 0.002328 | 0.00323 | 991.45

[1]
Details | viscosity [mPa·s]
m1 = 0.01061 | 0.8936
m1 = 0.01522 | 0.895
m1 = 0.03084 | 0.901
m1 = 0.05091 | 0.9086
m1 = 0.06874 | 0.9157
m1 = 0.08186 | 0.9219
